These are literature values, as cited in patent publication US20230381158A1, “COMPOSITIONS FOR THE TREATMENT OF NON-ALCOHOLIC FATTY LIVER DISEASE AND NON-ALCOHOLIC STEATOHEPATITIS” (LUMOS PHARMA, INC., priority 2018, published 2023).

Counter-ions that a name gives are not always drawn. Ends that are not written are not given here.

The test system of one data set is adult NASH patients. The note with it: 1 year treatment, adult NASH patients refractory to dietary intervention.
The test system of data set [1] is adults NASH without diabetes and cirrhosis. The note with it: 800 mg/day, versus placebo.
The next data set has as its system NASH patients. The settings on record: 300 mg/day for more than 2 years, Japan.
For data set [2] the following is noted: long-term or high-dose use; several conflicting results exist.
For data set [3] the following is noted: five studies.
The conditions of data set [4]: FDA warning.
The test system of the next data set is GH/IGF-1 axis. The settings on record: in vivo.
The subject of the next data set is Type 2 diabetic patients. The settings on record: Type 2 diabetic patients on metformin and/or a sulphonylurea agent, 12 week treatment.
Another data set has as its system subjects. The note with it: 12 subjects treated for 24 weeks.
The test system of another data set is NAFLD patients. The note with it: 24 week study, 50 NAFLD patients, versus placebo.
Where [5] appears, read: compared with the control group.

For vitamin E, in the data set on adult NASH patients, the TGF-β1 entry is given as “reduced” and the serum transaminase activities result is “reduced”. Besides, the “improvements of NASH histology” value in data set [1] is “superior to placebo”. The hepatic fibrosis result in the data set with NASH patients is “can ameliorate hepatic fibrosis”. Besides, the “all-cause mortality, prostatic cancer, hemorrhagic stroke” value in data set [2] was “may increase”. Further, in data set [3] (setting [5]), the hepatic steatosis result is on record as “significantly reduced”, the hepatocellular ballooning result was “significantly reduced”, the inflammation result was “significantly reduced” and the serum hepatobiliary enzymes result was “significantly reduced”. Moreover, the fibrosis improvement entry in data set [3] is “not confirmed”.
Consider `CCc1ccc(CCOc2ccc(CC3SC(=O)NC3=O)cc2)nc1` (centres unmarked) [pioglitazone], for which, in data set [4], the “risk of bladder cancer” value is on record as “may be linked to an increased risk of bladder cancer”.
On to `CC(C)(N)C(=O)N[C@H](COCc1ccccc1)C(=O)N1CCC2(CC1)CN(S(C)(=O)=O)c1ccccc12` [ibutamoren, ibutamoren mesylate], for which the “amplitude of pulsatile release of endogenous GH” value with GH/IGF-1 axis is reported as “enhances”. Moreover, in the data set on pancreatic […]-cells, the “glucose stimulated insulin secretion” value is listed as “does not suppress”. Besides, in the data set on obese individuals, the GH secretion entry was “enhance GH secretion”, the lean body mass entry is listed as “increase lean body mass” and the “serum IGF-1” value is “increase serum IGF-1”.
As to “ghrelin (GSSFLSPEHQRVQQRKESKKPPAKLQPR; ends and bridges not checked; UniProt Q9UBU3 24-51, looked up) [hormone produced in the gastrointestinal tract that modulates GH]”, the “insulin release from pancreatic […]-cells” value in the data set on pancreatic […]-cells was “inhibits insulin release”.
Turning to `N[C@@H](CC(=O)N1CCn2c(nnc2C(F)(F)F)C1)Cc1cc(F)c(F)cc1F` [sitagliptin], in the data set on Type 2 diabetic patients, the “hepatic steatosis or fibrosis” value was “neither treatment reduced hepatic steatosis or fibrosis”. For the same compound, the fibrosis entry in the data set with subjects is “no improvement”. Further, the reducing liver fat entry with NAFLD patients is “no better than placebo”.
